Laboratory results reported in US7265103B2, “Substituted amino isoxazoline derivatives and their use as anti-depressants” (Janssen Pharmaceutica NV., priority 2002, dated 2007).

What was measured:
[1] = target: T1, hα2C receptor (Homo sapiens, UniProt P18825); test: Radioligand binding experiment for α2C-adrenergic receptor ([3H]-raulwolscine); conditions: CHO cell membranes with human α2C receptor, [3H]raulwolscine 1 nM; read-out: pIC50 α2C (converted)
T1 construct: expressed in transfected cells; host or cells: CHO cells
T1 sequence (P18825 1-462): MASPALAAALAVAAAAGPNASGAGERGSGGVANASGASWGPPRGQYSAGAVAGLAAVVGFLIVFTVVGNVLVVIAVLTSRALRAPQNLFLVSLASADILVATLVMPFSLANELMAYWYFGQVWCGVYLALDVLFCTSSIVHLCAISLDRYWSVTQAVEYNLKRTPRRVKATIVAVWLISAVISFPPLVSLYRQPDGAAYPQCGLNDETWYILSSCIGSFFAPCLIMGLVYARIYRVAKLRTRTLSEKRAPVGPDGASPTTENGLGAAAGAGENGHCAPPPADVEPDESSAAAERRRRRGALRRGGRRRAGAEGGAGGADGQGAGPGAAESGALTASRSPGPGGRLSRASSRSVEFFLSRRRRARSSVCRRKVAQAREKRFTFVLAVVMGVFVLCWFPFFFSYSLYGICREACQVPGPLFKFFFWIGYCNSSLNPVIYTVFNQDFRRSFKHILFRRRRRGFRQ
Procedure: (§1) The interaction of the compounds of Formula (I) with hα2-receptors and h5-HT-transporters was assessed in in vitro radioligand binding experiments. In general, a low concentration of a radioligand with a high binding affinity for a particular receptor or transporter is incubated with a sample of a tissue preparation enriched in a particular receptor or transporter or with a preparation of cells expressing cloned human receptors in a buffered medium. During the incubation, the radioligand binds to the receptor or transporter. When equilibrium of binding is reached, the receptor bound radioactivity is separated from the non-bound radioactivity, and the receptor- or transporter-bound activity is counted. The interaction of the test compounds with the receptor is assessed in competition binding experiments. Various concentrations of the test compound are added to the incubation mixture containing the receptor- or transporter preparation and the radioligand. The test compound in proportion to its binding affinity and its concentration inhibits binding of the radioligand. The radioligand used for hα2A, hα2B and hα2C receptor binding was [^3H]-raulwolscine and for the h5-HT transporter was [^3H]paroxetine.
(§2) CHO cells, stabile transfected with human adrenergic-α2A-, -α2B or α2C receptor cDNA, were cultured in Dulbecco's Modified Eagle's Medium (DMEM)/Nutrient mixture Ham's F12 (ratio 1:1)(Gibco, Gent-Belgium) supplemented with 10% heat inactivated fetal calf serum (Life Technologies, Merelbeke-Belgium) and antibiotics (100 IU/ml penicillin G, 100 μg/ml streptomycin sulphate, 110 μg/ml pyruvic acid and 100 μg/ml L-glutamine). One day before collection, cells were induced with 5 mM sodiumbutyrate. Upon 80-90% of confluence, cells were scraped in phosphate buffered saline without Ca^2+ and Mg^2+ and collected by centrifugation at 1500×g for 10 min. The cells were homogenised in Tris-HCl 50 mM using an Ultraturrax homogenizer and centrifuged for 10 min at 23,500×g. The pellet was washed once by resuspension and rehomogenization and the final pellet was resuspended in Tris-HCl, divided in 1 ml aliquots and stored at −70° C.
(§3) Membranes were thawed and re-homogenized in incubation buffer (glycylglycine 25 mM, pH 8.0). In a total volume of 500 μl, 2-10 μg protein was incubated with [^3H]raulwolscine (NET-722) (New England Nuclear, USA) (1 nM final concentration) with or without competitor for 60 min at 25° C. followed by rapid filtration over GF/B filter using a Filtermatel 96 harvester (Packard, Meriden, Conn.). Filters were rinsed extensively with ice-cold rinsing buffer (Tris-HCl 50 mM pH 7.4). Filter-bound radioactivity was determined by scintillation counting in a Topcount (Packard, Meriden, Conn.) and results were expressed as counts per minute (cpm). Non-specific binding was determined in the presence of 1 μM oxymetazoline for hα2A- and hα2B receptors and 1 μM spiroxatrine for hα2C receptors.
(§4) Data from assays in the presence of compound were calculated as a percentage of total binding measured in the absence of test compound. Inhibition curves, plotting percent of total binding versus the log value of the concentration of the test compound, were automatically generated, and sigmoidal inhibition curves were fitted using non-linear regression. The pIC50 values of test compounds were derived from individual curves.

[2] = target: T2, hα2A receptor (Homo sapiens, UniProt P08913); test: Radioligand binding experiment for α2A-adrenergic receptor ([3H]-raulwolscine); conditions: CHO cell membranes with human α2A receptor, [3H]raulwolscine 1 nM; read-out: pIC50 α2A (converted)
T2 construct: expressed in transfected cells; host or cells: CHO cells
T2 sequence (P08913 1-465): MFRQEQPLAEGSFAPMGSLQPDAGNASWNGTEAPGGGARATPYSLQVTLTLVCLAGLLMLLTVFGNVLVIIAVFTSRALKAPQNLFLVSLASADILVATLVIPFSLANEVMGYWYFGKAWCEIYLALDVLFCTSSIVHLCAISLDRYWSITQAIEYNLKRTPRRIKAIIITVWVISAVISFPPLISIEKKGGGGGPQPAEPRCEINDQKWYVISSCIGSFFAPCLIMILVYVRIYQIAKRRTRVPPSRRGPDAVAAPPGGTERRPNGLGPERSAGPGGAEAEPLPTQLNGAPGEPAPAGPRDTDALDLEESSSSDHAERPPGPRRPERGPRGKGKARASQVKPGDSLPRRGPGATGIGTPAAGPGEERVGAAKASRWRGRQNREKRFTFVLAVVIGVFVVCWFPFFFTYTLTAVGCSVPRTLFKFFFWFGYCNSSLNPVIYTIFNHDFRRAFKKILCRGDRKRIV
Procedure: as §1, §2, §3, §4

[3] = target: T3, h5-HT transporter (Homo sapiens, UniProt P31645); test: Radioligand binding experiment for 5-HT transporter ([3H]paroxetine); conditions: human platelet membranes, [3H]paroxetine 0.5 nM
T3 construct: Human platelet membranes (Oceanix Biosciences Corporation, Hanover, Md., USA) were thawed; tissue Oceanix Biosciences Corporation; host or cells: human platelet membranes
Procedure: as §1
Human platelet membranes (Oceanix Biosciences Corporation, Hanover, Md., USA) were thawed, diluted in buffer (Tris-HCl 50 mM, 120 mM NaCl and 5 mM KCl) and quickly (max 3 s) homogenised with an Ultraturrax homogenizer. In a total volume of 250 μL, 50-100 μg protein was incubated with [^3H]paroxetine (NET-869) (New England Nuclear, USA) (0.5 nM final concentration) with or without competitor for 60 min at 25° C. Incubation was stopped by rapid filtration of the incubation mixture over GF/B filters, pre-wetted with 0.1% polyethyleneamine, using a Filtermatel 96 harvester (Packard, Meriden, Conn.). Filters were rinsed extensively with ice-cold buffer and radioactivity on the filters was counted in a Topcount liquid scintillation counter (Packard, Meriden, Conn.). Data were expressed as cpm. Imipramine (at 1 μM final concentration) was used to determine the non-specific binding.
as §4

T3 sequence (P31645 whole entry): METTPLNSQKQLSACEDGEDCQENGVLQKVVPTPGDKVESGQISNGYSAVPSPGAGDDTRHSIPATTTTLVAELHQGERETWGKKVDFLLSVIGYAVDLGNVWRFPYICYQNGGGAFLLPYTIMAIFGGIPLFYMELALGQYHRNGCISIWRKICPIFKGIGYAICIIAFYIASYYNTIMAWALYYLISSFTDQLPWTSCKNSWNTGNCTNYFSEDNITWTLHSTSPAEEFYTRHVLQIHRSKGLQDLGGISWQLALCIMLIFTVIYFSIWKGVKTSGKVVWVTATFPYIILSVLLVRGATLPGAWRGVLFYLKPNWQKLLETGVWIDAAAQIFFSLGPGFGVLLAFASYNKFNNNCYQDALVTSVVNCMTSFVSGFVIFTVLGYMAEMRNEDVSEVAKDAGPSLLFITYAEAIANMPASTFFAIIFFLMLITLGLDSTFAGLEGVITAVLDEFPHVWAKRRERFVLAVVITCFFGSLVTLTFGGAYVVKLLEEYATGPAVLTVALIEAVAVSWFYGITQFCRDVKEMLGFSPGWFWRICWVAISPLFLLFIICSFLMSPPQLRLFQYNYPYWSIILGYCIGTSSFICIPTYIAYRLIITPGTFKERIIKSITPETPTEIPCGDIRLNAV

Structure (SMILES) | IC50 [1] [nM] | IC50 [2] [nM] | IC50 [3] [nM]
CC(=Cc1ccc(F)cc1)CN1CCN(CC2ON=C3c4ccc(N(C)CCOC(=O)C5CC5)cc4OCC32)CC1 (stereo not drawn) [Compound 109] | 31.6 | 158 | 39.8
CC(=Cc1ccc(F)cc1)CN1CCN(CC2ON=C3c4ccc(N(C)CCNCC(C)O)cc4OCC32)CC1 (stereo not drawn) [Compound 119] | 3.16 | 10 | 3.16
COc1cc2c(cc1N1CCCC1C)OCC1C2=NOC1CN1CCN(CC(C)=Cc2ccc(F)cc2)CC1 (stereo not drawn) [Compound 101] | 31.6 | 39.8 | 158
CC(=Cc1ccc(F)cc1)CN1CCN(CC2ON=C3c4ccc(N(C)CCOC(=O)C5CCC5)cc4OCC32)CC1 (stereo not drawn) [Compound 108] | 50.1 | 200 | 79.4
COc1cc2c(cc1N)OCC1C2=NOC1CN1CCN(C/C(C)=C/c2ccccc2)CC1 (stereo not drawn) [Compound 8] | 1.58 | 5.01 | 25.1
CCCCCNc1ccc2c(c1)OCC1C2=NOC1CN1CCN(CC(C)=Cc2ccc(F)cc2)CC1 (stereo not drawn) [Compound 133] | 126 | 126 | 126
CC(=Cc1ccccc1)CN1CCN(CC2ON=C3c4ccc(NC(=O)c5cccnc5)cc4OCC32)CC1 (stereo not drawn) [Compound 67] | 1.26 | 2 | 12.6
COc1cc2c(cc1NCC(C)C)OCC1C2=NOC1CN1CCN(CC(C)=Cc2ccc(F)cc2)CC1 (stereo not drawn) [Compound 116] | 158 | 200 | 79.4
CC(=Cc1ccc(F)cc1)CN1CCN(CC2ON=C3c4ccc(NC(N)=O)cc4OCC32)CC1 (stereo not drawn) [Compound 137] | 10 | 6.31 | 20
CCC(C)C(=O)Nc1cc2c(cc1OC)C1=NOC(CN3CCN(CC(C)=Cc4ccc(F)cc4)CC3)C1CO2 (stereo not drawn) [Compound 114] | 20 | 25.1 | 31.6
CC(=Cc1ccc(F)cc1)CN1CCN(CC2ON=C3c4ccc(N(C)CCN5CCC5)cc4OCC32)CC1 (stereo not drawn) [Compound 123] | 3.16 | 10 | 7.94
COc1cc2c(cc1NC(C)=O)OCC1C2=NOC1CN1CCN(C/C(C)=C/c2ccccc2)CC1 (stereo not drawn) [Compound 10] | 1.26 | 3.98 | 63.1
COc1cc2c(cc1NCCN1CCCC1)OCC1C2=NOC1CN1CCN(CC(C)=Cc2cccc(F)c2)CC1 (stereo not drawn) [Compound 27] | 3.16 | 15.8 | 5.01
CC(=Cc1ccccc1)CN1CCN(CC2ON=C3c4ccc(NC(=O)C5CC5)cc4OCC32)CC1 (stereo not drawn) [Compound 51] | 1 | 1.58 | 15.8
CC(=Cc1cccc(F)c1)CN1CCN(CC2ON=C3c4ccc(N(C)CCO)cc4OCC32)CC1 (stereo not drawn) [Compound 35] | 1.26 | 3.16 | 7.94
CC(=Cc1ccccc1)CN1CCN(CC2ON=C3c4ccc(N(C)CCO)cc4OCC32)CC1 (stereo not drawn) [Compound 31] | 1.26 | 1.26 | 25.1
CC(=Cc1ccc(F)cc1)CN1CCN(CC2ON=C3c4ccc(NC(=O)C5CC5)cc4OCC32)CC1 (stereo not drawn) [Compound 138] | 31.6 | 31.6 | 50.1
COc1cc2c(cc1N1CCOCC1)OCC1C2=NOC1CN1CCN(CC(C)=Cc2ccc(F)cc2)CC1 (stereo not drawn) [Compound 85] | 3.16 | 10 | 63.1
CC(=Cc1ccc(F)cc1)CN1CCN(CC2ON=C3c4ccc(NCCN5CCOCC5)cc4OCC32)CC1 (stereo not drawn) [Compound 30] | 3.98 | 50.1 | 10
COc1cc2c(cc1N1CCN(C)CC1)OCC1C2=NOC1CN1CCN(CC(C)=Cc2cccc(F)c2)CC1 (stereo not drawn) [Compound 76] | 0.794 | 3.98 | 3.16
COc1cc2c(cc1NCCN1CCCC1)OCC1C2=NOC1CN1CCN(CC(C)=Cc2ccc(F)cc2)CC1 (stereo not drawn) [Compound 29] | 1.58 | 15.8 | 3.16
CCNc1cc2c(cc1OC)C1=NOC(CN3CCN(CC(C)=Cc4ccc(F)cc4)CC3)C1CO2 (stereo not drawn) [Compound 105] | 31.6 | 50.1 | 20
CNc1cc2c(cc1OC)C1=NOC(CN3CCN(CC(C)=Cc4ccccc4)CC3)C1CO2 (stereo not drawn) [Compound 88] | 1.26 | 5.01 | 20
CCNC(=O)N1CCOc2cc3c(cc21)OCC1C3=NOC1CN1CCN(C/C(C)=C/c2ccccc2)CC1 (stereo not drawn) [Compound 16] | 0.794 | 7.94 | 7.94
CC(=Cc1ccc(F)cc1)CN1CCN(CC2ON=C3c4ccc(N(C)CCO)cc4OCC32)CC1 (stereo not drawn) [Compound 38] | 1.58 | 79.4 | 12.6
COc1cc2c(cc1NC(C)=O)OCC1C2=NOC1CN1CCN(CC(C)=Cc2cccc(F)c2)CC1 (stereo not drawn) [Compound 49] | 0.251 | 1.26 | 7.94
C/C(=C\c1ccccc1)CN1CCN(CC2ON=C3c4cc5c(cc4OCC32)N(C)CCO5)CC1 (stereo not drawn) [Compound 14] | 5.01 | 15.8 | 31.6
C/C(=C\c1ccccc1)CN1CCN(CC2ON=C3c4ccc(NC(=O)[C@H]5CCCN5)cc4OCC32)CC1 (stereo partly drawn) [Compound 56] | 0.501 | 3.16 | 12.6
CNc1ccc2c(c1)OCC1C2=NOC1CN1CCN(CC(C)=Cc2ccccc2)CC1 (stereo not drawn) [Compound 87] | 3.16 | 2.51 | 50.1
C=CC(=O)Nc1cc2c(cc1OC)C1=NOC(CN3CCN(CC(C)=Cc4ccc(F)cc4)CC3)C1CO2 (stereo not drawn) [Compound 106] | 12.6 | 6.31 | 31.6
